Activity calls are given as the source filed them. No cut-off for these calls is given here.
Assays:
[1] = Half life in mouse liver microsomes in presence of NADPH by liquid chromatographic method; format: ADME; details: for half-life: liver microsomes
[2] = target: 5-hydroxytryptamine receptor 7 (Homo sapiens, UniProt P34969); experiment: Displacement of [3H]-5-CT from human 5-HT7b receptor expressed in HEK293 cell membranes after 1 hr by microbeta counting analysis
[3] = Displacement of [3H]-prazosin from adrenergic alpha 1 receptor in pig brain cortical membranes after 50 mins by microbeta counting analysis; format: ADME, cell membranes, Sus scrofa
[4] = Stability in mouse liver microsomes assessed as oxidative metabolism by measuring drug recovery at 10 uM preincubated for 10 mins followed by NADPH addition measured after 30 mins by liquid chromatographic method; format: ADME; details: for remaining at 0.5 h, 10 µM: liver microsomes, read-out: Drug recovery
[5] = target: T1, 5-hydroxytryptamine receptor 1A (Homo sapiens, UniProt P08908); experiment: Displacement of [3H]-8-OH-DPAT from human 5-HT1A receptor expressed in HEK293 cell membranes after 1 hr by microbeta counting analysis
T1 sequence (P08908 whole entry): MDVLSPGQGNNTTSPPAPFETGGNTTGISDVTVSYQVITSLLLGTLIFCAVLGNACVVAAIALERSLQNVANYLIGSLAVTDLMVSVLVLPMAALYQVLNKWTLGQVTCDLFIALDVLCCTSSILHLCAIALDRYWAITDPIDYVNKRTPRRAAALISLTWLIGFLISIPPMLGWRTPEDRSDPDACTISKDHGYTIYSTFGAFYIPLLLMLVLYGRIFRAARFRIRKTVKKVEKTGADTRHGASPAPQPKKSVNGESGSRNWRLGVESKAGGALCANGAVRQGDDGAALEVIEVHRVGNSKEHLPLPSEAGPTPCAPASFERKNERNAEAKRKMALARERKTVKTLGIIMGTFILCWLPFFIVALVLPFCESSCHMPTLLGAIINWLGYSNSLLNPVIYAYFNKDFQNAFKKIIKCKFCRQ

[6] = Retention factor, logKw of compound in MeOH/0.01 M phosphate buffer at pH 7.4 by RP-HPLC method; format: physicochemical
[7] = target: T2, D(2) dopamine receptor (Homo sapiens, UniProt P14416); experiment: Displacement of [3H]raclopride from human dopamine D2L receptor expressed in HEK293 cell membranes after 1 hr by microbeta counting analysis; format: cell-based
[8] = target: T3, 5-hydroxytryptamine receptor 6 (Homo sapiens, UniProt P50406); experiment: Displacement of [3H]-LSD from human 5-HT6 receptor expressed in HEK293 cell membranes after 1 hr by microbeta counting analysis
[9] = Half life in ip dosed mouse; details: in vivo
[10] = Elimination half life in CD-1 mouse plasma at 10 mg/kg, ip administered as single dose by LC/MS analysis; format: ADME, organism-based; details: read-out: beta t1/2 (converted)
[11] = Drug uptake in CD-1 mouse plasma at 10 mg/kg, ip administered as single dose measured up to 4 hrs by LC/MS analysis; format: ADME, organism-based; details: in vivo
[12] = target: 5-hydroxytryptamine receptor 7 (Mus musculus) (UniProt P32304); experiment: Agonist activity at 5-HT7 receptor in embryonic day 15 C57BL/6 mouse cortex assessed as increase in neurite length at 20 nM after 30 mins by DAPI staining based microscopy relative to control; format: tissue-based
[13] = target: 5-hydroxytryptamine receptor 7 (Mus musculus) (UniProt P32304); experiment: Agonist activity at 5-HT7 receptor in embryonic day 15 C57BL/6 mouse striatum assessed as increase in neurite length at 20 nM after 30 mins by DAPI staining based microscopy relative to control
[14] = Elimination half life in CD-1 mouse brain at 10 mg/kg, ip administered as single dose by LC/MS analysis; format: ADME, organism-based; details: read-out: beta t1/2 (converted)
[15] = target: 5-hydroxytryptamine receptor 7 (Mus musculus) (UniProt P32304); experiment: Agonist activity at 5-HT7 receptor in embryonic day 15 C57BL/6 mouse striatum assessed as increase in neurite length at 20 nM up to 4 hrs by DAPI staining based microscopy relative to control
[16] = Cmax in CD-1 mouse brain at 10 mg/kg, ip administered as single dose after 30 mins by LC/MS analysis; format: ADME, organism-based; parameters: dose 10 mg/kg, route intraperitoneal
[17] = target: 5-hydroxytryptamine receptor 7 (Mus musculus) (UniProt P32304); experiment: Agonist activity at 5-HT7 receptor in embryonic day 15 C57BL/6 mouse cortex assessed as increase in neurite length at 20 nM up to 24 hrs by DAPI staining based microscopy; format: tissue-based
[18] = Cmax in CD-1 mouse plasma at 10 mg/kg, ip administered as single dose after 30 mins by LC/MS analysis; format: ADME, organism-based; parameters: dose 10 mg/kg, route intraperitoneal
[19] = Ratio of drug uptake in CD-1 mouse brain to plasma at 10 mg/kg, ip administered as single dose by LC/MS analysis; format: ADME, organism-based; details: read-out: BPR
[20] = target: T3, 5-hydroxytryptamine receptor 6; experiment: Displacement of [3H]-LSD from human 5-HT6 receptor after […] by cell based assay
[21] = target: T2, D(2) dopamine receptor; experiment: Binding affinity to dopamine D2 receptor (unknown origin)

Sequence of 5-hydroxytryptamine receptor 7 (P34969 whole entry): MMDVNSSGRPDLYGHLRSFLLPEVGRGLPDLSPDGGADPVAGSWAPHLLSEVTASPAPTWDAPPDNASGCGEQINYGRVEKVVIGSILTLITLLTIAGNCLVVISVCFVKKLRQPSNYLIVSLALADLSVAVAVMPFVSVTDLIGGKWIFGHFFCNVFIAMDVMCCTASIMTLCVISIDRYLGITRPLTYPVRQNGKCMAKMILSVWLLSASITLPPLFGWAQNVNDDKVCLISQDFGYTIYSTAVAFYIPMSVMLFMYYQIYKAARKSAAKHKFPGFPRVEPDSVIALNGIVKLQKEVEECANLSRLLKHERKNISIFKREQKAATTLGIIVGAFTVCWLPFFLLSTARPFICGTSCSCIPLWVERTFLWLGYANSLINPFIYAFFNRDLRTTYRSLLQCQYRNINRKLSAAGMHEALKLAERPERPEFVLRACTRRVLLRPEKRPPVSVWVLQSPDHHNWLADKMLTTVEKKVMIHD
T2 sequence (P14416 whole entry): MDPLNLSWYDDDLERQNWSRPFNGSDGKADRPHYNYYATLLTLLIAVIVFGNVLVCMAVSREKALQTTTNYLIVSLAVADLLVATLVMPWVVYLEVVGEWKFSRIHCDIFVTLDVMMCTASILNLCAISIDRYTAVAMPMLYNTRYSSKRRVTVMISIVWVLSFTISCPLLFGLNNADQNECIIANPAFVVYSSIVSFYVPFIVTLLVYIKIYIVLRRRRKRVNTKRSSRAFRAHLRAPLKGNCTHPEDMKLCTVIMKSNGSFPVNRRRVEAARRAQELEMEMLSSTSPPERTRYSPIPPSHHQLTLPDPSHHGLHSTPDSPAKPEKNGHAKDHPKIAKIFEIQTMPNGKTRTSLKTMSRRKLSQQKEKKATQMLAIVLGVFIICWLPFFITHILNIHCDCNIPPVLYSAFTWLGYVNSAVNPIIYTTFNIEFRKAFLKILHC
Sequence of 5-hydroxytryptamine receptor 7 (Mus musculus) (P32304 whole entry): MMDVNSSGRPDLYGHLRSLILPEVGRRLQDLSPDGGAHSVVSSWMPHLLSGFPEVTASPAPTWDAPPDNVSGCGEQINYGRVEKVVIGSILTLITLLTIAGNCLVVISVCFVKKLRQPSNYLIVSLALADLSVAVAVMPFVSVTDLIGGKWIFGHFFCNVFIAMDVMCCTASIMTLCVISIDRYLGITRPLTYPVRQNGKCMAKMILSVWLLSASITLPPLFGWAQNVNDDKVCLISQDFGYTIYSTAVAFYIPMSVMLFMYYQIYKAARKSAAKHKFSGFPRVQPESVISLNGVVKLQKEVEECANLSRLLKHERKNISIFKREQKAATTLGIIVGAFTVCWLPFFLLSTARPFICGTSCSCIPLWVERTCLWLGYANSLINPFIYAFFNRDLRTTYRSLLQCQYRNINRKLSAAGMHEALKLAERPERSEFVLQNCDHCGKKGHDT
T3 sequence (P50406 whole entry): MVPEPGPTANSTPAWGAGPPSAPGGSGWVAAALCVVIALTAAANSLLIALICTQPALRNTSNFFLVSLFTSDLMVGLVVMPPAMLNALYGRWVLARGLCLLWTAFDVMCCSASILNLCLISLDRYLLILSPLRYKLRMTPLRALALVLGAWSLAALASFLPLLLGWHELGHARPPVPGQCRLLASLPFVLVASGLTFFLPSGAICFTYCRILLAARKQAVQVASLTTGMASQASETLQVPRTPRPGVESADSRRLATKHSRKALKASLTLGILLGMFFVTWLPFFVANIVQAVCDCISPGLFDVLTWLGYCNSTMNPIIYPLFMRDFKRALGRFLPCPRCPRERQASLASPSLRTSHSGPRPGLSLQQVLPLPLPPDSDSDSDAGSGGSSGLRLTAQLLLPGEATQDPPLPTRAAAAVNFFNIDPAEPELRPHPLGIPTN

Compound	half-life [1]	Ki [2]	Ki [3]	remaining at 0.5 h, 10 µM [4]	Ki [5]	logKw [6]	Ki [7]	Ki [8]	further results
COc1ccc(-c2ccccc2N2CCN(CCCCCC(=O)NCc3ccc(C#N)cc3)CC2)cc1	18 min	8 nM	30 nM	25%	126 nM	0.54	293 nM	745 nM	–
O=C1CCc2ccc(OCCCCN3CCN(c4cccc(Cl)c4Cl)CC3)cc2N1 [ARIPIPRAZOLE]	–	–	–	–	–	–	–	–	half-life [9]: 264 min
COc1ccc(-c2cc(F)ccc2N2CCN(CCCCCC(=O)NCc3ccc(C#N)cc3)CC2)cc1	–	25.5 nM	6.6 nM	–	771 nM	0.52	522 nM	614 nM	t1/2 ([1]; microsomes): 45 min; Drug recovery ([4]; microsomes, 0.5 h, 10 µM): 27%; half-life [10]: 64.2 min; Drug uptake [11]: Active; Activity [12]: 130%; Activity [13]: 124%; half-life [14]: 61.2 min; Activity [15]: 126%; Cmax [16]: 515 ng/mL; Activity [17]: Active; Cmax [18]: 1170 ng/mL; Kp [19]: 0.5
N#Cc1ccc(CNC(=O)CCCCCN2CCN(c3ccc(F)cc3-c3ccc(C#N)cc3)CC2)cc1	26 min	27 nM	3.2 nM	22%	2870 nM	0.23	1380 nM	927 nM	–
N#Cc1ccc(CNC(=O)CCCCCN2CCN(c3ccccc3-c3ccccc3)CC2)cc1	–	–	–	20%	–	0.58	–	–	Ki [20]: 1570 nM; Ki [21]: 242 nM
COc1ccc(-c2ccccc2N2CCN(CCCCCC(=O)N[C@@H](C)c3ccc(C#N)cc3)CC2)cc1	29 min	19 nM	12.9 nM	24%	147 nM	0.59	308 nM	700 nM	–
COc1ccc(-c2ccccc2N2CCN(CCCCCC(=O)N[C@H](C)c3ccc(C#N)cc3)CC2)cc1	23 min	12 nM	17.8 nM	26%	109 nM	0.54	243 nM	843 nM	–
O=C(CCOCCN1CCN(c2ncccc2-c2ccc(F)cc2)CC1)NCc1ccc(C(F)(F)F)cc1	–	32 nM	1370 nM	2%	1840 nM	0.42	393 nM	1070 nM	–

— ChEMBL document CHEMBL3856221, “Structural modifications of the serotonin 5-HT7 receptor agonist N-(4-cyanophenylmethyl)-4-(2-biphenyl)-1-piperazinehexanamide (LP-211) to improve in vitro microsomal stability: A case study” (Eur J Med Chem, 2016)
